Assay results: patent publication US11905286B2, “Diazabicyclooctanones as inhibitors of serine beta-lactamases” (priority 2018, dated 2024)
In brackets after ≈: the same amount, converted by molar mass. Structures can show the parent of a compound that is named as a salt. Where two headings read alike, the source gives them in different places.

How the values were obtained:
CTX-M15 = CTX-M15 (Escherichia coli, UniProt Q9EXV5); assay: In vitro enzyme inhibition assay (nitrocefin hydrolysis), CTX-M15; format: biochemical
Experimental: (§1) Compound dilution was performed in DMSO.

[1] = tested on: NTBC091.1 (E. coli strain expressing KPC-2, TEM-1); assay: Meropenem potentiation, broth micro-dilution MIC, strain NTBC091.1; format: cell-based; settings: for MIC mero + 4 μg/mL inhibitor (banded): NTBC091.1, MIC of meropenem with 4 μg/mL of the labelled inhibitor, band; for MIC of meropenem + compound compared with meropenem + avibactam: NTBC091.1
Experimental: (§4) The experiments were carried out using the ‘broth micro-dilution method’ according to the protocols M07-A8 established by the Clinical Laboratory Standards Institute (CLSI). […] After incubation for 18-20 hours in a heating chamber at 37° C., the growth inhibition was evaluated by the absence of any bacterial development.
(§5) Compounds of the invention were tested at concentrations of 4 μg/mL.

[2] = tested on: NTBC189 (K. pneumoniae strain expressing TEM-OSBL(b), CTX-M-14, OXA-48(c)); assay: Meropenem potentiation, broth micro-dilution MIC, strain NTBC189; settings: for MIC: Klebsiella pneumoniae, read-out: MIC mero + 4 μg/mL inhibitor
Experimental: as §4, §5

AmpC [3] = molecular target: T1, AmpC (Enterobacter cloacae, UniProt P05364); settings: read-out: Amp-C mean IC50 (banded); nitrocefin 100 μM, band
[4] = tested on: NTBC093 (E. cloacae strain expressing KPC-2, TEM-1); assay: Meropenem potentiation, broth micro-dilution MIC, strain NTBC093; settings: for MIC: Enterobacter cloacae, read-out: MIC mero + 4 μg/mL inhibitor
Experimental: as §4, §5

[5] = tested on: NTBC096.1 (K. pneumoniae strain expressing OXA-181 and SHV-11); assay: Meropenem potentiation, broth micro-dilution MIC, strain NTBC096.1; format: cell-based; settings: for MIC: Klebsiella pneumoniae, read-out: MIC mero + 4 μg/mL inhibitor
Experimental: as §4, §5

OXA-48 = OXA-48 (Klebsiella pneumoniae, UniProt Q6XEC0); assay: In vitro enzyme inhibition assay (nitrocefin hydrolysis), OXA-48; format: biochemical
Experimental: as §1

KPC-2 = KPC-2 (Klebsiella pneumoniae, UniProt Q9F663); assay: In vitro enzyme inhibition assay (nitrocefin hydrolysis), KPC-2; format: biochemical
Experimental: as §1

[6] = tested on: NTBC099 (K. pneumoniae strain expressing KPC-3, SHV-11 and TEM-1); assay: Meropenem potentiation, broth micro-dilution MIC, strain NTBC099; settings: Klebsiella pneumoniae, read-out: MIC mero + 4 μg/mL inhibitor
Experimental: as §4, §5

AmpC [7] = molecular target: T1, AmpC; assay: biochemical
TEM-1 = TEM-1 (Escherichia coli, UniProt P62593); assay: In vitro enzyme inhibition assay (nitrocefin hydrolysis), TEM-1; format: biochemical; settings: nitrocefin 100 μM, band; read-out: TEM-1 mean IC50 (banded)
Experimental: as §1

[8] = tested on: larger panel of clinical strains of OXA positive enterobacteriaceae; assay: Cumulative MIC, larger panel of clinical strains of OXA positive enterobacteriaceae (FIG. 1B); settings: meropenem + 4 μg/mL inhibitor
[9] = tested on: OXA-expressing clinical strain of Klebsiella pneumoniae (AC00783); assay: Mouse thigh infection efficacy model, AC00783; format: in vivo; settings: mice, IV at 1, 3, 5 and 7 hours post infection with constant dose of meropenem, 9 hours post infection
Experimental: (§2) Compounds of the invention were further examined in animal efficacy models.
(§3) Vehicle, meropenem alone or meropenem and a compound of the invention (Example 10) were administered by IV at 1, 3, 5 and 7 hours post infection. 9 hours post infection animals were sacrificed and the number of colony forming units (CFUs) was measured in order to quantify bacterial burden (colony forming units per gram thigh tissue, CFU/g).

[10] = tested on: KPC-expressing clinical strain of Klebsiella pneumoniae (NR-48977); assay: MIC against strain used in thigh model, NR-48977; format: cell-based
Excerpt: as §2

[11] = tested on: OXA-expressing clinical strain of Klebsiella pneumoniae (AC00783); assay: MIC against strain used in thigh model, AC00783; format: cell-based
Excerpt: as §2

[12] = tested on: OXA-expressing clinical strain of Acinetobacter baumannii (AC00445); assay: MIC against strain used in thigh model, AC00445; format: cell-based
Excerpt: as §2

[13] = tested on: KPC-expressing clinical strain of Klebsiella pneumoniae (NR-48977); assay: Mouse thigh infection efficacy model, NR-48977; format: in vivo; settings: mice, IV at 1, 3, 5 and 7 hours post infection with constant dose of meropenem, 9 hours post infection
Experimental: as §2, §3

[14] = tested on: clinical strains of KPC positive enterobacteriaceae; settings: FIG. 2, meropenem + 4 μg/mL inhibitor
[15] = tested on: OXA-expressing clinical strain of Acinetobacter baumannii (AC00445); assay: Mouse thigh infection efficacy model, AC00445; format: in vivo; settings: mice, IV at 1, 3, 5 and 7 hours post infection with constant dose of meropenem, 9 hours post infection
Experimental: as §2, §3

[16] = tested on: panel of 48 A. baumannii strains (OXA positive clinical isolates); assay: Cumulative MIC, panel of 48 A. baumannii strains (FIG. 3)
[17] = tested on: clinical strains of OXA positive enterobacteriaceae; assay: Cumulative MIC, panel of clinical strains of OXA positive enterobacteriaceae (FIG. 1A); settings: antibiotic alone or clinical combination

T1 sequence (P05364 21-381): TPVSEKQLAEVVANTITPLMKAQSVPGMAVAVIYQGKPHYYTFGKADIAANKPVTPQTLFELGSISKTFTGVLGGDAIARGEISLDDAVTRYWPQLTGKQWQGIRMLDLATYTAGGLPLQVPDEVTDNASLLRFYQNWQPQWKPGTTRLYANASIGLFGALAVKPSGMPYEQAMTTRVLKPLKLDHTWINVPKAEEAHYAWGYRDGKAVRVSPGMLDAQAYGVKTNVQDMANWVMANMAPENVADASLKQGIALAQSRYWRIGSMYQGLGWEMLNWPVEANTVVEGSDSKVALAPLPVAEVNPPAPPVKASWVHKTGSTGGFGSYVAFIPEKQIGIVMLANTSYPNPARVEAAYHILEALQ
Sequence of TEM-1 (P62593 24-286 limits assumed): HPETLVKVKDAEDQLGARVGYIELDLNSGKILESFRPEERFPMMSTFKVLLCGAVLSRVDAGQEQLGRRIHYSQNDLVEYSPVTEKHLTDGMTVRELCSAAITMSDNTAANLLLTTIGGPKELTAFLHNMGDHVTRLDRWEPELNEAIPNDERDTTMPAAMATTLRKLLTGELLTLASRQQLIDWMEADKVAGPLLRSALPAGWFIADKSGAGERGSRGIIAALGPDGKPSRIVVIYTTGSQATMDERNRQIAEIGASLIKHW
Sequence of OXA-48 (Q6XEC0 23-265 limits assumed): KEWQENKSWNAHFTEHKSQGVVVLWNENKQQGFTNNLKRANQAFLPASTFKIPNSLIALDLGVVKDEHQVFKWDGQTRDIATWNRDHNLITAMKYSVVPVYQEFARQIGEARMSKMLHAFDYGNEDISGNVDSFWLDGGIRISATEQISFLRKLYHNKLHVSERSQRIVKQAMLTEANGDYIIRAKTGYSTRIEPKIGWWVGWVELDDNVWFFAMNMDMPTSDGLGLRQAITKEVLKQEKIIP
Sequence of CTX-M15 (Q9EXV5 entry or part of it): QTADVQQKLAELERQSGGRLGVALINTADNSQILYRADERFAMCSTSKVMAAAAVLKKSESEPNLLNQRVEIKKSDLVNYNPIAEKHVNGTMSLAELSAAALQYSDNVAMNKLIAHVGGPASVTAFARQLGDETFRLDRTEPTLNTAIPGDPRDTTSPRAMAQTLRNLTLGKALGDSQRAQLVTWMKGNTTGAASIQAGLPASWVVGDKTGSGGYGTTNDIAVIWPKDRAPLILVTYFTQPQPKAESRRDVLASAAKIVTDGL
Sequence of KPC-2 (Q9F663 25-293 limits assumed): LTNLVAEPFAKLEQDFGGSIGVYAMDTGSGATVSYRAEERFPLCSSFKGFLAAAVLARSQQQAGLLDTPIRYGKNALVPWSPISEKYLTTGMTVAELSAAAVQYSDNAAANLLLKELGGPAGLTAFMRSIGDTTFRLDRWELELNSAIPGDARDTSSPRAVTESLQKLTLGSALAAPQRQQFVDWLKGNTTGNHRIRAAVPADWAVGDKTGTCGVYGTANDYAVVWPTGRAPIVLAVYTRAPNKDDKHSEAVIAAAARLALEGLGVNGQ

Row | Structure (SMILES) | MIC mero + 4 μg/mL inhibitor (banded) [1] | IC50 (CTX-M15) | IC50 (OXA-48) | IC50 (KPC-2) | IC50 (AmpC [7]) | other results
1 | NC(=O)[C@@H]1CC[C@@H]2CN1C(=O)N2OS(=O)(=O)O [Avibactam, avibactam, reference compound] | A (1 μg/mL) | – | – | – | – | IC50 (CTX-M15; nitrocefin 50 μM, band, read-out: CTX-M15 mean IC50 (banded)): < 5 nM; MIC mero + 4 μg/mL inhibitor (banded) ([2]; NTBC189, MIC of meropenem with 4 μg/mL of the labelled inhibitor, band): A (1 μg/mL); IC50 (AmpC [3]): < 10 nM; MIC mero + 4 μg/mL inhibitor (banded) ([4]; NTBC093, MIC of meropenem with 4 μg/mL of the labelled inhibitor, band): A (1 μg/mL); MIC mero + 4 μg/mL inhibitor ([4]; NTBC093, MIC of meropenem with 4 μg/mL of the labelled inhibitor, value): 0.03 µg/mL; MIC mero + 4 μg/mL inhibitor (banded) ([5]; NTBC096.1, MIC of meropenem with 4 μg/mL of the labelled inhibitor, band): B (MIC=1 or 2 μg/mL)
2 | O=C1N2C[C@@H](CC[C@H]2C(F)(F)F)N1OS(=O)(=O)O [Example 1, Sodium (2S, 5R)-7-oxo-2-(trifluoromethyl)-1,6-diazabicyclo[3.2.1]octan-6-yl sulfate] | (A) (1 μg/mL) | 5 to 20 nM | < 20 nM | < 10 nM | – | MIC of meropenem + compound compared with meropenem + avibactam [1]: lower; MIC [2]: 2 µg/mL; MIC [4]: 0.06 µg/mL; MIC [5]: 4 µg/mL
3 | O=C1N2C[C@@H](CC[C@H]2C(F)F)N1OS(=O)(=O)O [Example 2, Sodium (2S, 5R)-7-oxo-2-(difluoromethyl)-1,6-diazabicyclo[3.2.1]octan-6-yl sulfate] | (A) (1 μg/mL) | 5 to 20 nM | 20 to 100 nM | < 10 nM | – | MIC of meropenem + compound compared with meropenem + avibactam [1]: lower; MIC [2]: 2 µg/mL; MIC [6]: 1 µg/mL; MIC [4]: 0.06 µg/mL; MIC [5]: 4 µg/mL
4 | O=C1N2C[C@@H](CC[C@H]2C(Cl)Cl)N1OS(=O)(=O)O [Example 3, Sodium (2S,5R)-2-(dichloromethyl)-7-oxo-1,6-diazabicyclo[3.2.1]octan-6-yl sulfate] | (A) (1 μg/mL) | 20 to 100 nM | 100 to 200 nM | < 10 nM | 40 to 60 nM | –
5 | O=C1N2C[C@@H](CC[C@H]2CF)N1OS(=O)(=O)[O-].[Na+] [Example 4, Sodium (2S, 5R)-2-(fluoromethyl)-7-oxo-1,6-diazabicyclo[3.2.1]octan-6-yl sulphate] | (A) (1 μg/mL) | 5 to 20 nM | 200 to 300 nM | > 10 nM | < 10 nM | –
6 | CC(F)(F)[C@@H]1CC[C@@H]2CN1C(=O)N2OS(=O)(=O)[O-].[Na+] [Example 5, Sodium (2S, 5R)-2-(1,1-difluoroethyl)-7-oxo-1,6-diazabicyclo[3.2.1]octan-6-yl sulphate] | (A) (1 μg/mL) | 5 to 20 nM | 20 to 100 nM | > 10 nM | 40 to 60 nM | –
7 | O=C1N2C[C@@H](CC[C@H]2CCl)N1OS(=O)(=O)[O-].[Na+] [Example 6, Sodium (2S, 5R)-2-(chloromethyl)-7-oxo-1,6-diazabicyclo[3.2.1]octan-6-yl sulphate] | (A) (1 μg/mL) | – | 200 to 300 nM | > 10 nM | 10 to 40 nM | –
8 | O=C1N2C[C@@H](CC[C@H]2SC(F)(F)F)N1OS(=O)(=O)[O-].[Na+] [Example 7, Sodium (2R, 5R)-7-oxo-2-[(trifluoromethyl)sulfanyl]-1,6-diazabicyclo[3.2.1]octan-6-yl sulphate] | (A) (1 μg/mL) | – | 200 to 300 nM | > 10 nM | 40 to 60 nM | –
9 | O=C1N2C[C@@H](CC[C@H]2COC(F)(F)F)N1OS(=O)(=O)[O-].[Na+] [Example 8, Sodium (2S, 5R)-7-oxo-2-[(trifluoromethoxy)methyl]-1,6-diazabicyclo[3.2.1]octan-6-yl sulphate] | (A) (1 μg/mL) | 100 to 200 nM | 200 to 300 nM | < 10 nM | 40 to 60 nM | –
10 | O=C1N2C[C@@H](CC[C@H]2C(F)(F)c2nccs2)N1OS(=O)(=O)[O-].[Na+] [Example 9, Sodium (2S, 5R)-2-[difluoro(1,3-thiazol-2-yl)methyl]-7-oxo-1,6-diazabicyclo[3.2.1]octan-6-yl sulphate] | (A) (1 μg/mL) | 20 to 100 nM | 200 to 300 nM | < 10 nM | < 10 nM | –
11 | O=C1N2C[C@@H](CC[C@H]2F)N1OS(=O)(=O)[O-].[Na+] [Example 10, Sodium (2R,5R)-2-fluoro-7-oxo-1,6-diazabicyclo[3.2.1]octan-6-yl sulfate] | (A) (1 μg/mL) | – | 200 to 300 nM | > 10 nM | 10 to 40 nM | IC50 (TEM-1): < 3 nM; MIC50 of meropenem with addition of 4 μg/mL of inhibitor [8]: 0.12 µg/mL; MIC90 of meropenem with addition of 4 μg/mL of inhibitor [8]: 0.5 µg/mL; bacterial burden (colony forming units per gram thigh tissue) [9]: dose response; MIC of meropenem + compound compared with meropenem + avibactam [1]: lower; MIC (Meropenem + inhibitor at 4 μg/mL) ([10]; NR-48977): 1 µg/mL; MIC of meropenem + compound compared with meropenem + avibactam ([2]; NTBC189): lower; MIC (Meropenem + inhibitor at 4 μg/mL) [11]: 0.25 µg/mL; MIC of meropenem + compound compared with meropenem + avibactam ([4]; NTBC093): similar; MIC (Meropenem + inhibitor at 4 μg/mL) ([12]; AC00445): 4 µg/mL; bacterial burden (colony forming units per gram thigh tissue) [13]: dose response; MIC of meropenem + compound compared with meropenem + avibactam ([5]; NTBC096.1): lower; MIC50 of meropenem with addition of 4 μg/mL of inhibitor [14]: 0.12 µg/mL; bacterial burden (colony forming units per gram thigh tissue) [15]: dose response; % of the strains susceptible ([16]; FIG. 3, in the presence of 2 μg/mL of each inhibitor, inhibitor in combination with meropenem): around 50%; % of the strains susceptible ([16]; FIG. 3, in the presence of 16 μg/mL of each inhibitor, inhibitor in combination with meropenem): ~100%; MIC90 of meropenem with addition of 4 μg/mL of inhibitor ([16]; FIG. 3, meropenem + 4 μg/mL inhibitor): 8 µg/mL
12 | O=C1N2C[C@@H](CC[C@@H]2F)N1OS(=O)(=O)[O-].[Na+] [Example 11, Sodium (2S, 5R)-2-fluoro-7-oxo-1,6-diazabicyclo [3.2.1]octan-6-yl sulfate] | (A) (1 μg/mL) | – | > 300 nM | > 10 nM | > 60 nM | IC50 (TEM-1): > 10 nM
13 | O=C1N2C[C@@H](CC[C@H]2Cl)N1OS(=O)(=O)[O-].[Na+] [Example 12, Sodium (2R,5R)-2-chloro-7-oxo-1,6-diazabicyclo[3.2.1]octan-6-yl sulfate] | (A) (1 μg/mL) | – | > 300 nM | > 10 nM | < 10 nM | IC50 (TEM-1): < 3 nM; MIC of meropenem + compound compared with meropenem + avibactam [1]: lower
14 | C[C@@H](O)[C@H]1C(=O)N2C(C(=O)O)=C(S[C@@H]3CN[C@H](C(=O)N(C)C)C3)[C@H](C)[C@H]12 [meropenem, reference compound] | – | – | – | – | – | MIC ([10]; Klebsiella pneumoniae, read-out: MIC (meropenem alone)): 64 µg/mL (≈ 167 µM); fraction of strains susceptible at an MIC of 1 μg/mL [17]: 0%; MIC ([12]; Acinetobacter baumannii, read-out: MIC (meropenem alone)): 64 µg/mL (≈ 167 µM); % of the strains susceptible ([16]; FIG. 3, in the presence of 2 μg/mL of each inhibitor, antibiotic alone or clinical combination): 0%
